Laboratory results: patent US10329320B2, “Neuroactive steroids, compositions, and uses thereof” (Sage Therapeutics, Inc., priority 2015, dated 2019)

molecular target: GABAA receptor ([35S]-TBPS binding, rat brain cortical membranes); assay: Steroid inhibition of [35S]-TBPS binding (radioligand displacement); settings: 3 nM [35S]-TBPS, in the presence of 5 μM GABA
Description: TBPS binding assays using rat brain cortical membranes in the presence of 5 μM GABA has been described (Gee et al, J. Pharmacol. Exp. Ther. 1987, 241, 346-353; Hawkinson et al, Mol. Pharmacol. 1994, 46, 977-985; Lewin, A. H et al., Mol. Pharmacol. 1989, 35, 189-194).
Briefly, cortices are rapidly removed following decapitation of carbon dioxide-anesthetized Sprague-Dawley rats (200-250 g). The cortices are homogenized in 10 volumes of ice-cold 0.32 M sucrose using a glass/teflon homogenizer and centrifuged at 1500×g for 10 min at 4° C. The resultant supernatants are centrifuged at 10,000×g for 20 min at 4° C. to obtain the P2 pellets. The P2 pellets are resuspended in 200 mM NaCl/50 mM Na—K phosphate pH 7.4 buffer and centrifuged at 10,000×g for 10 min at 4° C. This washing procedure is repeated twice and the pellets are resuspended in 10 volumes of buffer. Aliquots (100 μL) of the membrane suspensions are incubated with 3 nM [^35S]-TBPS and 5 μL aliquots of test drug dissolved in dimethyl sulfoxide (DMSO) (final 0.5%) in the presence of 5 μM GABA. The incubation is brought to a final volume of 1.0 mL with buffer. Nonspecific binding is determined in the presence of 2 μM unlabeled TBPS and ranged from 15 to 25%. Following a 90 min incubation at room temp, the assays are terminated by filtration through glass fiber filters (Schleicher and Schuell No. 32) using a cell harvester (Brandel) and rinsed three times with ice-cold buffer. Filter bound radioactivity is measured by liquid scintillation spectrometry. Non-linear curve fitting of the overall data for each drug averaged for each concentration is done using Prism (GraphPad). […] The concentration of test compound producing 50% inhibition (IC50) of specific binding and the maximal extent of inhibition (Imax) are determined for the individual experiments with the same model used for the overall data and then the means ±SEM.s of the individual experiments are calculated.
Various compounds are or can be screened to determine their potential as modulators of [^35S]-TBPS binding in vitro. These assays are or can be performed in accordance with the above discussed procedures.

SMILES	IC50
COC[C@]12CC[C@@](C)(O)C[C@@H]1CC[C@H]1[C@@H]3CC[C@H](C(=O)Cn4nc5cc(F)cc(F)c5n4)[C@@]3(C)CC[C@@H]12 [Compound 10]	< 10 nM
COC[C@]12CC[C@@](C)(O)C[C@@H]1CC[C@H]1[C@@H]3CC[C@H](C(=O)Cn4nnc5cc(Cl)cnc54)[C@@]3(C)CC[C@@H]12 [Compound 12]	< 10 nM
COC[C@]12CC[C@@](C)(O)C[C@@H]1CC[C@H]1[C@@H]3CC[C@H](C(=O)Cn4nc5cc(Cl)cnc5n4)[C@@]3(C)CC[C@@H]12 [Compound 13]	< 10 nM
COC[C@]12CC[C@@](C)(O)C[C@H]1CC[C@H]1[C@@H]3CC[C@H](C(=O)Cn4cc5ccc(F)cc5n4)[C@@]3(C)CC[C@@H]12 [Compound 14]	< 10 nM
COC[C@]12CC[C@@](C)(O)C[C@H]1CC[C@H]1[C@@H]3CC[C@H](C(=O)Cn4ncc5ccc(F)cc54)[C@@]3(C)CC[C@@H]12 [Compound 15]	< 10 nM
COC[C@]12CC[C@@](C)(O)C[C@H]1CC[C@H]1[C@@H]3CC[C@H](C(=O)Cn4ncc5cc(F)ccc54)[C@@]3(C)CC[C@@H]12 [Compound 16]	< 10 nM
COC[C@]12CC[C@@](C)(O)C[C@H]1CC[C@H]1[C@@H]3CC[C@H](C(=O)Cn4cc5cc(F)ccc5n4)[C@@]3(C)CC[C@@H]12 [Compound 17]	10 to 50 nM
COC[C@]12CC[C@@](C)(O)C[C@H]1CC[C@H]1[C@@H]3CC[C@H](C(=O)Cn4nnc5ccccc54)[C@@]3(C)CC[C@@H]12 [Compound 18]	< 10 nM
COC[C@]12CC[C@@](C)(O)C[C@H]1CC[C@H]1[C@@H]3CC[C@H](C(=O)Cn4cc5ccccc5n4)[C@@]3(C)CC[C@@H]12 [Compound 19]	< 10 nM
COC[C@]12CC[C@@](C)(O)C[C@H]1CC[C@H]1[C@@H]3CC[C@H](C(=O)Cn4cc(SC)cn4)[C@@]3(C)CC[C@@H]12 [Compound 21]	< 10 nM
COC[C@]12CC[C@@](C)(O)C[C@H]1CC[C@H]1[C@@H]3CC[C@H](C(=O)Cn4cc([S+](C)[O-])cn4)[C@@]3(C)CC[C@@H]12 (some centres unmarked) [Compound 22]	100 to 500 nM
COC[C@]12CC[C@@](C)(O)C[C@H]1CC[C@H]1[C@@H]3CC[C@H](C(=O)Cn4nc5ccc(Cl)c(F)c5n4)[C@@]3(C)CC[C@@H]12 [Compound 24]	< 10 nM
COC[C@]12CC[C@@](C)(O)C[C@H]1CC[C@H]1[C@@H]3CC[C@H](C(=O)Cn4nnc5ccc(OC)cc54)[C@@]3(C)CC[C@@H]12 [Compound 25]	< 10 nM
COC[C@]12CC[C@@](C)(O)C[C@H]1CC[C@H]1[C@@H]3CC[C@H](C(=O)Cn4nnc5cc(OC)ccc54)[C@@]3(C)CC[C@@H]12 [Compound 26]	< 10 nM
COC[C@]12CC[C@@](C)(O)C[C@H]1CC[C@H]1[C@@H]3CC[C@H](C(=O)Cn4nc5ccc(OC)cc5n4)[C@@]3(C)CC[C@@H]12 [Compound 27]	< 10 nM
COC[C@]12CC[C@@](C)(O)C[C@H]1CC[C@H]1[C@@H]3CC[C@H](C(=O)Cn4nnc5c(OC)cccc54)[C@@]3(C)CC[C@@H]12 [Compound 28]	< 10 nM
COC[C@]12CC[C@@](C)(O)C[C@H]1CC[C@H]1[C@@H]3CC[C@H](C(=O)Cn4nnc5cccc(OC)c54)[C@@]3(C)CC[C@@H]12 [Compound 29]	< 10 nM
COC[C@]12CC[C@@](C)(O)C[C@H]1CC[C@H]1[C@@H]3CC[C@H](C(=O)Cn4nc5cccc(OC)c5n4)[C@@]3(C)CC[C@@H]12 [Compound 30]	< 10 nM
COC[C@]12CC[C@@](C)(O)C[C@H]1CC[C@H]1[C@@H]3CC[C@H](C(=O)Cn4cc(SC)cn4)[C@@]3(C)CC[C@@H]12 [Compound 34]	10 to 50 nM
COC[C@]12CC[C@@](C)(O)C[C@H]1CC[C@H]1[C@@H]3CC[C@H](C(=O)Cn4cc([S+](C)[O-])cn4)[C@@]3(C)CC[C@@H]12 (some centres unmarked) [Compound 35]	> 500 nM
COC[C@]12CC[C@@](C)(O)C[C@@H]1CC[C@H]1[C@@H]3CC[C@H](C(=O)Cn4ccnc4C#N)[C@@]3(C)CC[C@@H]12 [Compound 36]	100 to 500 nM
COC[C@]12CC[C@@](C)(O)C[C@@H]1CC[C@H]1[C@@H]3CC[C@H](C(=O)Cn4cc(OC)cn4)[C@@]3(C)CC[C@@H]12 [Compound 37]	100 to 500 nM
COC[C@]12CC[C@@](C)(O)C[C@@H]1CC[C@H]1[C@@H]3CC[C@H](C(=O)Cn4cc(OC(C)C)cn4)[C@@]3(C)CC[C@@H]12 [Compound 38]	50 to 100 nM
COC[C@]12CC[C@@](C)(O)C[C@@H]1CC[C@H]1[C@@H]3CC[C@H](C(=O)Cn4cc5c(OC)cccc5n4)[C@@]3(C)CC[C@@H]12 [Compound 40]	50 to 100 nM

SMILES	IC50
COC[C@]12CC[C@@](C)(O)C[C@@H]1CC[C@H]1[C@@H]3CC[C@H](C(=O)Cn4ncc5cccc(OC)c54)[C@@]3(C)CC[C@@H]12 [Compound 41]	50 to 100 nM
COC[C@]12CC[C@@](C)(O)C[C@@H]1CC[C@H]1[C@@H]3CC[C@H](C(=O)Cn4cc5ccc(OC)cc5n4)[C@@]3(C)CC[C@@H]12 [Compound 42]	10 to 50 nM
COC[C@]12CC[C@@](C)(O)C[C@@H]1CC[C@H]1[C@@H]3CC[C@H](C(=O)Cn4ncc5cc(OC)ccc54)[C@@]3(C)CC[C@@H]12 [Compound 43]	50 to 100 nM
COC[C@]12CC[C@@](C)(O)C[C@@H]1CC[C@H]1[C@@H]3CC[C@H](C(=O)Cn4cc5c(OC)cccc5n4)[C@@]3(C)CC[C@@H]12 [Compound 44]	10 to 50 nM
COC[C@]12CC[C@@](C)(O)C[C@@H]1CC[C@H]1[C@@H]3CC[C@H](C(=O)Cn4ncc5c(OC)cccc54)[C@@]3(C)CC[C@@H]12 [Compound 45]	50 to 100 nM
COC[C@]12CC[C@@](C)(O)C[C@@H]1CC[C@H]1[C@@H]3CC[C@H](C(=O)Cn4cc5ccncc5n4)[C@@]3(C)CC[C@@H]12 [Compound 46]	10 to 50 nM
COC[C@]12CC[C@@](C)(O)C[C@@H]1CC[C@H]1[C@@H]3CC[C@H](C(=O)Cn4ncc5cccnc54)[C@@]3(C)CC[C@@H]12 [Compound 47]	10 to 50 nM
COC[C@]12CC[C@@](C)(O)C[C@@H]1CC[C@H]1[C@@H]3CC[C@H](C(=O)Cn4cc5ccc(OC)cc5n4)[C@@]3(C)CC[C@@H]12 [Compound 48]	50 to 100 nM
COC[C@]12CC[C@@](C)(O)C[C@@H]1CC[C@H]1[C@@H]3CC[C@H](C(=O)Cn4ncc5ccc(OC)cc54)[C@@]3(C)CC[C@@H]12 [Compound 49]	50 to 100 nM
COC[C@]12CC[C@@](C)(O)C[C@@H]1CC[C@H]1[C@@H]3CC[C@H](C(=O)Cn4nnc5c(F)c(Cl)ccc54)[C@@]3(C)CC[C@@H]12 [Compound 51]	< 10 nM
COC[C@]12CC[C@@](C)(O)C[C@H]1CC[C@H]1[C@@H]3CC[C@H](C(=O)Cn4cnc(F)c4)[C@@]3(C)CC[C@@H]12 [Compound 52]	10 to 50 nM
COC[C@]12CC[C@@](C)(O)C[C@@H]1CC[C@H]1[C@@H]3CC[C@H](C(=O)Cn4cnc(F)c4)[C@@]3(C)CC[C@@H]12 [Compound 59]	100 to 500 nM
COC[C@]12CC[C@@](C)(O)C[C@@H]1CC[C@H]1[C@@H]3CC[C@H](C(=O)Cn4cc(C)cn4)[C@@]3(C)CC[C@@H]12 [Compound 60]	100 to 500 nM
CCOc1cnn(CC(=O)[C@H]2CC[C@H]3[C@@H]4CC[C@H]5C[C@](C)(O)CC[C@]5(COC)[C@H]4CC[C@]23C)c1 [Compound 61]	100 to 500 nM
COC[C@]12CC[C@@](C)(O)C[C@H]1CC[C@H]1[C@@H]3CC[C@H](C(=O)Cn4nnnc4C)[C@@]3(C)CC[C@@H]12 [Compound 63]	100 to 500 nM
COC[C@]12CC[C@@](C)(O)C[C@H]1CC[C@H]1[C@@H]3CC[C@H](C(=O)Cn4ccnc4C)[C@@]3(C)CC[C@@H]12 [Compound 64]	100 to 500 nM
COC[C@]12CC[C@@](C)(O)C[C@H]1CC[C@H]1[C@@H]3CC[C@H](C(=O)Cn4cc(N)cn4)[C@@]3(C)CC[C@@H]12 [Compound 66]	10 to 50 nM
COC[C@]12CC[C@@](C)(O)C[C@H]1CC[C@H]1[C@@H]3CC[C@H](C(=O)Cn4cc(C(F)(F)F)cn4)[C@@]3(C)CC[C@@H]12 [Compound 67]	10 to 50 nM
CC(C)OC[C@]12CC[C@@](C)(O)C[C@H]1CC[C@H]1[C@@H]3CC[C@H](C(=O)Cn4nnc5c(F)c(F)ccc54)[C@@]3(C)CC[C@@H]12 [Compound 68]	< 10 nM
CC(C)OC[C@]12CC[C@@](C)(O)C[C@H]1CC[C@H]1[C@@H]3CC[C@H](C(=O)Cn4nnc5ccc(F)c(F)c54)[C@@]3(C)CC[C@@H]12 [Compound 69]	< 10 nM
CC(C)OC[C@]12CC[C@@](C)(O)C[C@H]1CC[C@H]1[C@@H]3CC[C@H](C(=O)Cn4nc5ccc(F)c(F)c5n4)[C@@]3(C)CC[C@@H]12 [Compound 70]	< 10 nM
CC(C)OC[C@]12CC[C@@](C)(O)C[C@H]1CC[C@H]1[C@@H]3CC[C@H](C(=O)Cn4ncnn4)[C@@]3(C)CC[C@@H]12 [Compound 72]	< 10 nM
COC[C@]12CC[C@@](C)(O)C[C@H]1CC[C@@H]1[C@@H]2CC[C@]2(C)C(C(=O)Cn3nnnc3C)CC[C@@H]12 (some centres unmarked) [Compound 74]	100 to 500 nM
